In patent publication US11207312B2, “Metallo-beta-lactamase inhibitors and methods of use thereof” (priority 2017, dated 2021):

What was measured:
[1] = target: IMP-1 (Serratia marcescens, UniProt P52699); test: biochemical; conditions: CCF2-FA fluorescence assay, 2 hours at 25° C.; read-out: IMP1 IC50
Method in brief: (§1)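 Each enzyme (final 1 pM NDM-1, 2 pM IMP-1, 30 pM VIM-1) was incubated with test inhibitor (20 μM to 0.00063 μM) and 1.25 μM CCF2-FA for 2 hours at 25° C in zinc-supplemented phosphate buffer, pH 7. Fluorescence at 460 nm was then read and IC50 fitted with four parameters.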

[2] = target: VIM-1 (Pseudomonas aeruginosa (strain ATCC 15692 / DSM 22644 / CIP 104116 / JCM 14847 / LMG 12228 / 1C / PRS 101 / PAO1), UniProt A0A0F7KYQ8); test: biochemical; conditions: CCF2-FA fluorescence assay, 2 hours at 25° C.; read-out: VIM1 IC50
Method in brief: as §1

[3] = system: P. aeruginosa MB9799 (efflux-, IMP-1 plasmid); assay type: cell-based, Pseudomonas aeruginosa; conditions: efflux − (MB9799) strain; imipenem at 2 μg/mL; in the presence of a class A, C, D serine β-lactamase inhibitor closely related to relebactam
Method in brief: (§2)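 PAO1-derived isogenic pair (oprD+, inducible AmpC), efflux+ MB5919 or efflux− MB5890 parent, carrying an electroporated IMP-1 plasmid from a clinical isolate. Microbroth MIC with fixed imipenem and/or ceftazidime (usually CLSI breakpoint) plus fixed class A/C inhibitor; MBL inhibitor serially titrated, concentration restoring susceptibility recorded.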

[4] = system: Serratia marcescens expressing IMP-1 (CL5741); assay type: cell-based; conditions: with imipenem 1 μg/ml; 95% inhibition of bacterial growth
Method in brief: (§3)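 Colonies from sheep-blood agar plates are resuspended in saline, then diluted 1:100 in 1.1× CAMHB. Bacteria receive imipenem (1 μg/ml) and test compound, then incubate 22–24 h at 35 °C. Potentiation is reported as MITC95 from absorbance.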

[5] = system: Escherichia coli expressing NDM-1 (CLB30016); assay type: cell-based; conditions: with imipenem 1 μg/ml; 95% inhibition of bacterial growth
Method in brief: as §3

[6] = system: Klebsiella pneumoniae expressing VIM-1 (IHMA599644); assay type: cell-based; conditions: with imipenem 1 μg/ml; 95% inhibition of bacterial growth
Method in brief: as §3

[7] = system: P. aeruginosa MB9798 (efflux+, IMP-1 plasmid); conditions: for MB9798 MITC95 P. aeruginosa uM Efflux WT: efflux + (MB9798) strain, imipenem at 2 μg/mL, in the presence of a class A, C, D serine β-lactamase inhibitor closely related to relebactam; for Efflux ratio: fold difference between efflux+ (MB9798) and efflux− (MB9799) strains
Method in brief: as §2

[8] = target: NDM-1 (Klebsiella pneumoniae, UniProt C7C422); test: biochemical; assay type: biochemical; conditions: CCF2-FA fluorescence assay, 2 hours at 25° C.
Chain of NDM-1 (C7C422 whole entry, looked up, species assumed): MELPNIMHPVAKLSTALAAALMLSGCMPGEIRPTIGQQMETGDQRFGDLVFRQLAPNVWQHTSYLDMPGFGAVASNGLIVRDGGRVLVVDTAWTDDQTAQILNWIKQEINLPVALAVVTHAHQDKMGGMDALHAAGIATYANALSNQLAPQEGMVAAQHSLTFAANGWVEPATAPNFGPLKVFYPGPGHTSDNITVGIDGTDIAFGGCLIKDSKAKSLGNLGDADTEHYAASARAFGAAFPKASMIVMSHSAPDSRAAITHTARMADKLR
Method in brief: as §1

[9] = target: VIM-2 (Escherichia coli, UniProt Q5U7L7); test: biochemical; conditions: CCF2-FA fluorescence assay; read-out: VIM2 IC50

Chain of IMP-1 (P52699 whole entry, looked up, species assumed): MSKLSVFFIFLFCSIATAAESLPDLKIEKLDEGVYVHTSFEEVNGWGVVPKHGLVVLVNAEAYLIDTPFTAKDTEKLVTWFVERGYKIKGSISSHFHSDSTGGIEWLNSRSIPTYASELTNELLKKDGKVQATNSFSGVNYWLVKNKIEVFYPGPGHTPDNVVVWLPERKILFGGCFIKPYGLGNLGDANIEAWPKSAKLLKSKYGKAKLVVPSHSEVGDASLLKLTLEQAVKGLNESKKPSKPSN

| SMILES | IC50 [1] [nM] | IC50 [2] [nM] | MB9799 MITC95 P. aeruginosa uM Efflux Mutant [3] [µM] | CL5741 S. marcescens MITC95 IMP [4] [µM] | CLB30016 E. coli MITC95 NDM [5] [µM] | IHMA599644 K. pneumoniae MITC95 VIM [6] [µM] | MB9798 MITC95 P. aeruginosa uM Efflux WT [7] [µM] | Efflux ratio [7] | IC50 [8] [nM] | IC50 [9] [nM] |
| --- | --- | --- | --- | --- | --- | --- | --- | --- | --- | --- |
| N[C@@H]1CCN(c2ccc(S(=O)(=O)N[C@@H]3CCNC3)c(S(N)(=O)=O)c2-c2nn[nH]n2)C[C@@H]1F [Example 198, 4-((3S,4R)-4-amino-3-fluoropiperidin-1-yl)-N1-((R)-pyrrolidin-3-yl)-3-(2H-tetrazol-5-yl)benzene-1,2-disulfonamide] | 5.62 | 0.2 | 0.78 | 0.20 | 0.39 | 0.39 | 0.78 | 1.00 | 1.82 | 11 |
| NS(=O)(=O)c1c(S(=O)(=O)N[C@@H]2CCNC2)ccc(N2CCCC(=O)C2=O)c1-c1nn[nH]n1 [Example 151, (R)-4-(2,3-dioxopiperidin-1-yl)-N1-(pyrrolidin-3-yl)-3-(2H-tetrazol-5-yl) benzene-1,2-disulfonamide] | 6.7 | 1.15 | 3.13 | 1.56 | 0.39 | 6.25 | 12.50 | 4.00 | 0.53 | 5.92 |
| NC[C@@H](O)CNS(=O)(=O)c1ccc(N2CCC3(CC2)CNC(N)=N3)c(-c2nn[nH]n2)c1S(N)(=O)=O [Example 171, (R)—N1-(3-amino-2-hydroxypropyl)-4-(2-amino-1,3,8-triazaspiro [4.5]dec-1-en-8-yl)-3-(2H-tetrazol-5-yl)benzene-1,2-disulfonamide] | 7.39 | 0.92 | 0.39 | 0.78 | 0.39 | 0.78 | 0.78 | 2.00 | 3.38 | 27.8 |
| NC[C@@H](O)CNS(=O)(=O)c1ccc(N2CCC(C(N)CO)CC2)c(-c2nn[nH]n2)c1S(N)(=O)=O (single isomer, unassigned) [Example 181] | 5.78 | 0.22 | 0.78 | 0.39 | 0.39 | 1.56 | 0.78 | 1.00 | 4.62 | 5.87 |
| NC[C@@H](O)CNS(=O)(=O)c1ccc(N2CCC[C@@H](CN)C2)c(-c2nnn[nH]2)c1S(N)(=O)=O [Example 38, N1-((R)-3-amino-2-hydroxypropyl)-4-((S)-3-(aminomethyl)piperidin-1-yl)-3-(1H-tetrazol-5-yl)benzene-1,2-disulfonamide] | 20.6 | 0.67 | 0.78 | 0.78 | 0.20 | 0.78 | 3.13 | 4.00 | 6.3 | 2.11 |
| NC[C@@H](O)CNS(=O)(=O)c1ccc(N2CCC(F)(CN)CC2)c(-c2nn[nH]n2)c1S(N)(=O)=O [Example 3] | 3.95 | 0.61 | 0.39 | 1.56 | 0.78 | 0.78 | 0.78 | 2.00 | 2.43 | 3.68 |
| NC[C@@H](O)CNS(=O)(=O)c1ccc(N2CCN3CCOCC3C2)c(-c2nn[nH]n2)c1S(N)(=O)=O (stereo partly drawn) [Example 129, N1-((R)-3-amino-2-hydroxypropyl)-4-(hexahydropyrazino [2,1-c][1,4]oxazin-8(1H)-yl)-3-(2H-tetrazol-5-yl)benzene-1,2-disulfonamide 2,2,2-trifluoroacetate] | 4.72 | 3.53 | 3.13 | 3.13 | 6.25 | 12.50 | 6.25 | 2.00 | 2.7 | 6.44 |
| NS(=O)(=O)c1c(S(=O)(=O)N[C@@H]2CCNC2)ccc(N2CCC(OCCO)CC2)c1-c1nnn[nH]1 [Example 88, 4-[4-(2-hydroxyethoxy)piperidin-1-yl]-N1-[(3R)-pyrrolidin-3-yl]-3-(1H-tetrazol-5-yl)benzene-1,2-disulfonamide] | 0.13 | 0.19 | 6.25 | 12.50 | 12.50 | 12.50 | 6.25 | 1.00 | 0.08 | 0.97 |
| NS(=O)(=O)c1c(S(=O)(=O)N[C@@H]2CCNC2)ccc(N2CCCNC2=O)c1-c1nn[nH]n1 [Example 153, (R)-4-(2-oxotetrahydropyrimidin-1(2H)-yl)-N1-(pyrrolidin-3-yl)-3-(2H-tetrazol-5-yl)benzene-1,2-disulfonamide] | 7.23 | 0.2 | 1.56 | 1.56 | 0.78 | 3.13 | 3.13 | 2.00 | 0.21 | 1.1 |
| CN(C)[C@@H]1CCN(c2ccc(S(=O)(=O)N[C@@H]3CCNC3)c(S(N)(=O)=O)c2-c2nnn[nH]2)C1 [Example 68, 4-[(3R)-3-(dimethylamino)pyrrolidin-1-yl]-N1-[(3R)-pyrrolidin-3-yl]-3-(1H-tetrazol-5-yl)benzene-1,2-disulfonamide] | 16.2 | 2.11 | 1.56 | 1.56 | 0.78 | 1.56 | 12.50 | 8.00 | 22.1 | 17.8 |
| N[C@H]1CCCN(c2ccc(S(=O)(=O)N[C@@H]3CCNC3)c(S(N)(=O)=O)c2-c2nn[nH]n2)C1=O [Example 156, 4-((S)-3-amino-2-oxopiperidin-1-yl)-N1-((R)-pyrrolidin-3-yl)-3-(2H-tetrazol-5-yl)benzene-1,2-disulfonamide] | 67.7 | 2.14 | 1.56 | 1.56 | 0.39 | 1.56 | 12.50 | 8.00 | 4.64 | 7.16 |
